Test system: multiple myeloma
Experiment: Clinical response to Selinexor-based regimens after anti-CD38 monoclonal antibody in the immediate prior line (STOMP, XPORT-MM-028)
Format: in vivo, human
Settings: Selinexor-based regimen

In the case of `O=C(/C=C\n1cnc(-c2cc(C(F)(F)F)cc(C(F)(F)F)c2)n1)NNc1cnccn1` [Selinexor], the “PFS, anti-CD38 mAb in immediate prior line versus not” value (STOMP and XPORT-MM-028 trials) is reported as “statistically significant improvement”, the “VGPR rate, anti-CD38 mAb in immediate prior line versus not” value (STOMP trial (xpd and xkd arms)) is reported as “higher” and the “ORR and CBR, anti-CD38 mAb in immediate prior line versus not” value (XPORT-MM-028 trial (xvd)) is reported as “considerably higher”.
